Patent US5914351A, “Anti-viral aromatic hydrazones” (Uniroyal Chemical Company, Inc., priority 1997, dated 1999)
Values after ≈ are worked out from the molar mass of the structure shown.

Legend:
Type in all cases: cell-based
HIV-1/181-Cys = experiment: Inhibition of HIV-1 induced syncytium formation in CEM cells, RT mutant 181-Cys; conditions: Human immunodeficiency virus 1, CCRF-CEM, 96 h, read-out: EC50 181-Cys
Source text: (§1) CEM cells were obtained from the American Tissue Cell Culture Collection (Rockville, Md.). HIV-1 (IIIB) was originally obtained from the culture supernatant of persistently HIV-1-infected H9 cells and was provided by R. C. Gallo and M. Popovic (National Cancer Institute, National Institutes of Health, Bethesda, Md.). The selection and characterization of the HIV-1 RT mutant strains were done as follows: HIV-1/100-Ile ("100-Ile") was selected for resistance against TIBO R82150 as described in Balzarini et al, Virology 192: 246-253 (1993); HIV-1/103-Asn ("103-Asn") was selected for resistance against TIBO R82913 as described in Balzarini et al, Virology 192: 246-253 (1993); HIV-1/106-Ala ("106-Ala") was selected for resistance against nevirapine as described in Balzarini et al, J. Virol. 67: 5353-5359 (1993); HIV-1/138-Lys ("138-Lys") was selected for resistance against TSAO-m^3T as described in Balzarini et al, Virology 192: 246-253 (1993) and Balzarini et al, Proc. Nat. Acad. Sci. U.S.A. 90: 6952-6956 (1993); HIV-1/181-Cys ("181-Cys") was selected for resistance against pyridinone L-697,661 as described in Balzarini et al, Virology 192: 246-253 (1993); and HIV-1/188-His ("188-His") was selected for resistance against HEPT as described in Balzarini et al, Mol. Pharmocol. 44: 694-701 (1993). 188-His was then further converted to HIV-1/188-Leu ("188-Leu") upon further passage in cell culture in the absence of the HEPT.
(§2) CEM cells were suspended at ≈300,000 cells per mL of culture medium and infected with approximately 100 CCID50 (CCID50 being the 50% cell culture infective dose) of HIV-1 (IIIB) or one of the HIV-1 RT mutant strains described above. Then 100 μL of the infected cell suspensions was added to 200 μL microtiter plate wells containing 100 μL of appropriate serial (5-fold) dilutions of the test compounds. The inhibitory effect of the test compounds on HIV-1 induced syncytium formation in CEM cells was examined microscopically on day 4 post infection. […]

HIV-1/106-Ala = experiment: Inhibition of HIV-1 induced syncytium formation in CEM cells, RT mutant 106-Ala; conditions: Human immunodeficiency virus 1, CCRF-CEM, 96 h, read-out: EC50 106-Ala
Source text: as §1, §2

HIV-1/138-Lys = experiment: Inhibition of HIV-1 induced syncytium formation in CEM cells, RT mutant 138-Lys; conditions: Human immunodeficiency virus 1, CCRF-CEM, 96 h, read-out: EC50 138-Lys
Source text: as §1
(§3) CEM cells were suspended at ≈300,000 cells per mL of culture medium and infected with approximately 100 CCID50 (CCID50 being the 50% cell culture infective dose) of HIV-1 (IIIB) or one of the HIV-1 RT mutant strains described above. Then 100 μL of the infected cell suspensions was added to 200 μL microtiter plate wells containing 100 μL of appropriate serial (5-fold) dilutions of the test compounds. The inhibitory effect of the test compounds on HIV-1 induced syncytium formation in CEM cells was examined microscopically on day 4 post infection. The 50% effective concentration (EC50) was defined as the test compound concentration that inhibits syncytium formation in the HIV-1 infected cell cultures by 50%.

HIV-1 IIIB = experiment: Inhibition of HIV-1 induced syncytium formation in CEM cells, HIV-1 IIIB (wild type); conditions: Human immunodeficiency virus 1, CCRF-CEM, 96 h, day 4 post infection
Source text: as §1, §3

HIV-1/103-Asn = experiment: Inhibition of HIV-1 induced syncytium formation in CEM cells, RT mutant 103-Asn; conditions: Human immunodeficiency virus 1, CCRF-CEM, 96 h, read-out: EC50 103-Asn
Source text: as §1, with “188-His was then further converted to HIV-1/188-Leu ("188-Leu") upon further passage in cell culture in the absence of the HEPT.” left out

HIV-1/100-Ile = experiment: Inhibition of HIV-1 induced syncytium formation in CEM cells, RT mutant 100-Ile; conditions: Human immunodeficiency virus 1, CCRF-CEM, 96 h, read-out: EC50 100-Ile
Source text: as §1, with “188-His was then further converted to HIV-1/188-Leu ("188-Leu") upon further passage in cell culture in the absence of the HEPT.” left out

HIV-1/188-Leu = experiment: Inhibition of HIV-1 induced syncytium formation in CEM cells, RT mutant 188-Leu; conditions: Human immunodeficiency virus 1, CCRF-CEM, 96 h, read-out: EC50 188-Leu
Source text: as §1, with “188-His was then further converted to HIV-1/188-Leu ("188-Leu") upon further passage in cell culture in the absence of the HEPT.” left out

Structure (SMILES) | EC50 (HIV-1/181-Cys) [µg/mL] | EC50 (HIV-1/106-Ala) [µg/mL] | EC50 (HIV-1/138-Lys) [µg/mL] | EC50 (HIV-1 IIIB) [µg/mL] | EC50 (HIV-1/103-Asn) [µg/mL] | EC50 (HIV-1/100-Ile) [µg/mL] | EC50 (HIV-1/188-Leu) [µg/mL]
Cc1occc1C(=O)Nc1ccc(Cl)c(C=NN2CCCC2)c1 [Compound 3] | 1 (≈ 3.01 µM) | 1.3 (≈ 3.92 µM) | 1.6 (≈ 4.82 µM) | 0.325 (≈ 0.979 µM) |  |  | 
Cc1occc1C(=S)Nc1ccc(Cl)c(C=NN2CCOCC2)c1 [Compound 5, N-[4-chloro-3-[(4-morpholinylimino)methyl]phenyl]-2-methyl-3-furancarbothioamide] |  |  |  | 0.13 (≈ 0.357 µM) |  |  | 
Cc1occc1C(=S)Nc1ccc(Cl)c(C=NN(C)C)c1 [Compound 2] | 0.13 (≈ 0.404 µM) | 0.065 (≈ 0.202 µM) | 0.04 (≈ 0.124 µM) | 0.008 (≈ 0.0249 µM) | 0.65 (≈ 2.02 µM) | 0.14 (≈ 0.435 µM) | 
Cc1occc1C(=O)Nc1ccc(Cl)c(C=NN(C)C)c1 [Compound 1] |  |  | 1.6 (≈ 5.23 µM) | 0.225 (≈ 0.736 µM) |  |  | 
Cc1occc1C(=S)Nc1ccc(Cl)c(C=NN2CCCC2)c1 [Compound 4] | 0.1 (≈ 0.287 µM) | 0.1 (≈ 0.287 µM) | 0.08 (≈ 0.23 µM) | 0.015 (≈ 0.0431 µM) | 0.34 (≈ 0.977 µM) | 0.33 (≈ 0.949 µM) | 4.5 (≈ 12.9 µM)
